In general, GI50 refers to the concentration that inhibits growth by half. Lower therefore signals greater sensitivity of the cells. The inhibition is the drop in the measured response relative to a control, in per cent. As a reminder, the half-life is how long it takes for the measured level to halve.

Consider three compounds from PMC8309005, “Novel Non-Congeneric Derivatives of the Choline Kinase Alpha Inhibitor ICL-CCIC-0019” (Pharmaceutics, 2021).

Data set [1] has as its system HepG2 cells. In words: Anti-proliferative SRB assay, HepG2. The class given is cell-based. As to conditions: Homo sapiens, 72 h, Table S2, ± SD. As for the experimental part: (§1) Half-maximal growth inhibitory concentrations (GI50) were determined using sulforhodamine B (SRB) assay as described elsewhere. In brief, cells were seeded in 96-wells at respective cell densities determined by their cell growth curves. After 24 h, the cells were treated in six replicates with medium or different concentrations of CHKA inhibitors in medium and incubated for another 72 h. On completion of incubation, the cells were fixed with 10% trichloroacetic acid (TCA) and stained with 0.4% SRB in 1% acetic acid. The stained protein was solubilized with 10 mM Tris base and optical density values were measured at 540 nm using a Multiskan® EX Micro plate photometer (Thermo Scientific, Loughborough, UK). Growth inhibition curves were plotted as percentage of the control groups and GI50 data were determined by least squares fitting method using GraphPad Prism 7.0. All the chemicals used in this experiment were obtained from Sigma-Aldrich (Gillingham, UK).
Background: In SRB staining, fixed cells bind dye roughly in proportion to their protein.

For data set [2], the system named is 22Rv1 cell line. Briefly: Anti-proliferative SRB assay, 22Rv1. The class given is cell-based. As to conditions: Homo sapiens; 22Rv1, PSMA +; Table S3, ± SD. The procedure: as §1
Data set [3] deals with PNT1A cell line. Briefly: Anti-proliferative SRB assay, PNT1A. The note with it: Homo sapiens, PSMA −, Table S3, ± SD. The format is cell-based. The procedure: as §1
The test system of data set [4] is four cancer cell lines (HCT-116, A549, HepG2, Caco-2). Briefly: Anti-proliferative SRB assay, mean of four cancer cell lines. The class given is cell-based. The note with it: Homo sapiens. As for the experimental part: as §1
In data set [5] the test system is eight cell lines (22Rv1, C4-2B, LNCap, PC3, PNT1A, R1-AD1, R1-D567, HCT-116). In words: Anti-proliferative SRB assay, mean across eight cell lines. The class given is cell-based. As to conditions: Homo sapiens. As for the experimental part: as §1
For data set [6], the target named is PI3K a (Homo sapiens, UniProt P42336). Briefly: Lipid kinase screening (ADP-Glo), PI3K a. The format is biochemical. As for the experimental part: (§2) The lipid kinase screening for ICL-CCIC-0019, CK14, CK145 (5), CK146 (4) and CK147 (8) (testing concentration for all compounds: 10 μM) was performed by MRC PPU International Centre for Kinase Profiling (Dundee, UK). The lipid kinase screening panel includes 15 human recombinant lipid kinases and the tests used Promega ADP Glo^TM High Throughput Assay kit (Promega, Southampton, UK). For each assay, reference compounds were used as quality control. Finally, mean percentage activity inhibited by compounds and standard deviation for all the repeats were calculated.
Sequence of PI3K a (P42336 whole entry): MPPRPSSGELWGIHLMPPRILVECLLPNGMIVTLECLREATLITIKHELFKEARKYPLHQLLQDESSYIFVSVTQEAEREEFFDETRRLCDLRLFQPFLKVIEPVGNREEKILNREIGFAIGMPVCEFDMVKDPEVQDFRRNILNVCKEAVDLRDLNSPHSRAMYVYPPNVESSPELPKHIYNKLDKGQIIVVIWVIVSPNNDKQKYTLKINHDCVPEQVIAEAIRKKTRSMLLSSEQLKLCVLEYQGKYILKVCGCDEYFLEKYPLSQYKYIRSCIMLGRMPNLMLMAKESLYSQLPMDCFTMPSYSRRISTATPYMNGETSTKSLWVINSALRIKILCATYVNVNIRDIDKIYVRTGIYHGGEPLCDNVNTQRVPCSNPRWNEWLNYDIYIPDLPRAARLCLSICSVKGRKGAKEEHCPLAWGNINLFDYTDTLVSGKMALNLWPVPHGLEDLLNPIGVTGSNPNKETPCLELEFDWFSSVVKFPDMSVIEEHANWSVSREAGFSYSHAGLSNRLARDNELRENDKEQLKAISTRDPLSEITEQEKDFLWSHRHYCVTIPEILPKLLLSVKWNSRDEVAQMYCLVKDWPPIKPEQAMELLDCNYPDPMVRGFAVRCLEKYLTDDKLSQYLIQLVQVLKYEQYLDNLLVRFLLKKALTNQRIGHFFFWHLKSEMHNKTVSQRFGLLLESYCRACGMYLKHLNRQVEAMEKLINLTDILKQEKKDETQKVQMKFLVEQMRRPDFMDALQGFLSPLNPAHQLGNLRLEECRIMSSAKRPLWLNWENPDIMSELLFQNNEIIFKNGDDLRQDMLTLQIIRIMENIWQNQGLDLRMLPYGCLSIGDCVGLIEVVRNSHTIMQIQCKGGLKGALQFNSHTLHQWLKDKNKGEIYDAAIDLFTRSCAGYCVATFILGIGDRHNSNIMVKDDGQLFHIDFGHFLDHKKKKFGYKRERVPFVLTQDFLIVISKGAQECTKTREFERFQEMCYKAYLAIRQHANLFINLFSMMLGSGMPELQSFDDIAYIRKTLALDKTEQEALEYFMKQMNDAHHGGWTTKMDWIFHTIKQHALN
Sequence of PI3K a (P27986 whole entry partner): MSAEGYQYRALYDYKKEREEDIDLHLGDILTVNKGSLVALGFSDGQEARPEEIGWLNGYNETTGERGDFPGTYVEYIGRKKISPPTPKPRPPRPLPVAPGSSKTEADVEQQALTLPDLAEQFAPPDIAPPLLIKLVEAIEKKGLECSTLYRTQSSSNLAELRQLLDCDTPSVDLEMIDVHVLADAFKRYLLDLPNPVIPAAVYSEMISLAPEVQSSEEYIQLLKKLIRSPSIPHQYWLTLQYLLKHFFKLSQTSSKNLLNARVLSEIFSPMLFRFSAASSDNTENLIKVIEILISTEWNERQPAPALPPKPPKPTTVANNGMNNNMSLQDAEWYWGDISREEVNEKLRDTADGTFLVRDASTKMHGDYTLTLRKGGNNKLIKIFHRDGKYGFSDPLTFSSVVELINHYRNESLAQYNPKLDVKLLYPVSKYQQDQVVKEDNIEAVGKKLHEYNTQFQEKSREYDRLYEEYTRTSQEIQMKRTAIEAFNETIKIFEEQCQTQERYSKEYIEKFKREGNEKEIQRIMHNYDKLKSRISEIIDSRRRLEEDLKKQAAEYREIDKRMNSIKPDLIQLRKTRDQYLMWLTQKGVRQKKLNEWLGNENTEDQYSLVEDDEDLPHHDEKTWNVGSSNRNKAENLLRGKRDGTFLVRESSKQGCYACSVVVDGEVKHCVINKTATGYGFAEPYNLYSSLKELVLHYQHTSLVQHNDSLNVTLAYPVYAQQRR

In data set [7] the target is PI3K g (Homo sapiens, UniProt P48736). Briefly: Lipid kinase screening (ADP-Glo), PI3K g. The format is biochemical. As for the experimental part: as §2
Sequence of PI3K g (P48736 whole entry): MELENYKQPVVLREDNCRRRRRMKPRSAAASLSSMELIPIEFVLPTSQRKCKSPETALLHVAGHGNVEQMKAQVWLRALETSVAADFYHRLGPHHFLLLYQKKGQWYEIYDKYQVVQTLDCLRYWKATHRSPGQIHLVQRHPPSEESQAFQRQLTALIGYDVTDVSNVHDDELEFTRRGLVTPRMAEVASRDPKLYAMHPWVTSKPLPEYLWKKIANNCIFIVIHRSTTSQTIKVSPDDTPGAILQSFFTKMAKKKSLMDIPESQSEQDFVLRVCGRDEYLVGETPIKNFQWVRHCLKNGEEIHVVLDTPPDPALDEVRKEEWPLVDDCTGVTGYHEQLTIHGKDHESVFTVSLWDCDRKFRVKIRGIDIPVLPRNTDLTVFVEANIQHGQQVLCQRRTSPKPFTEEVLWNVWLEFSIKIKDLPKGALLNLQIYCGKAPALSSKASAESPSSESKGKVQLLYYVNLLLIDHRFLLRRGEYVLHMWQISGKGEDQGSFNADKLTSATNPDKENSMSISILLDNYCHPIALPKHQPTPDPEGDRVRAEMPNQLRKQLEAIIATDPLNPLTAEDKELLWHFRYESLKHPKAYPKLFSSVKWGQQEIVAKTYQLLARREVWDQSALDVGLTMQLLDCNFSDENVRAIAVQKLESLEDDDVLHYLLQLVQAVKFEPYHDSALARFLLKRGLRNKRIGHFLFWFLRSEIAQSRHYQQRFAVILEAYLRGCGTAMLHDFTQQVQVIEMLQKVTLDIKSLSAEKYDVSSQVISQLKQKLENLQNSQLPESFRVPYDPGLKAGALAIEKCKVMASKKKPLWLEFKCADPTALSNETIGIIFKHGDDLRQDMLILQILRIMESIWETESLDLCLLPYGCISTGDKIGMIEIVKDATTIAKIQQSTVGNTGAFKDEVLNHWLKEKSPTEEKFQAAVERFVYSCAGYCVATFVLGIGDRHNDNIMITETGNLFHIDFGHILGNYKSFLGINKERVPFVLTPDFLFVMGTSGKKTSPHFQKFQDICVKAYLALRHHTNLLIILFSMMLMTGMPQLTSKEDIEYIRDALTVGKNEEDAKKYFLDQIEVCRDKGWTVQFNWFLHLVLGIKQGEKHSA
In general terms: ADP-Glo turns the ADP formed in a reaction into a luminescent signal.

The test system of data set [8] is PI3Ka E524K + p85. In words: Lipid kinase screening (ADP-Glo), PI3Ka E524K + p85. The class given is biochemical, human. The note with it: 10 μM. As for the experimental part: as §2
In data set [9] the target is T1, PIP5K2A (Homo sapiens, UniProt P48426).
T1 sequence (P48426 1-406): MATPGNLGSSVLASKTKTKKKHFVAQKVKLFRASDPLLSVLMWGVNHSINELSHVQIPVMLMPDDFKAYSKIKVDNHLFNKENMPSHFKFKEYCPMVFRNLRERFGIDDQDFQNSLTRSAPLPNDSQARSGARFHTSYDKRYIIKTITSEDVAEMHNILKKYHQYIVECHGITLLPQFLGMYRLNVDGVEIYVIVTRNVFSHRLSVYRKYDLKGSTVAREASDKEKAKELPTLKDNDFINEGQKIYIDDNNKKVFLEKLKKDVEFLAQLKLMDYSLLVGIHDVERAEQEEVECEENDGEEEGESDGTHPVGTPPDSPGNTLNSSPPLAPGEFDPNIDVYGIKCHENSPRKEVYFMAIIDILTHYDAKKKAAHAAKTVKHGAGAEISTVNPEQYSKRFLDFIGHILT
Briefly: Lipid kinase screening (ADP-Glo), PIP5K2A. The format is biochemical. As for the experimental part:
as §2

For data set [10], the target named is DGK b (Homo sapiens, UniProt Q9Y6T7). Briefly: Lipid kinase screening (ADP-Glo), DGK b. The format is biochemical. The procedure: as §2
Data set [11] has as its target DGK z (Homo sapiens, UniProt Q13574). In words: Lipid kinase screening (ADP-Glo), DGK z. The format is biochemical. The procedure: as §2
Data set [12] deals with CHK b (CHKB) (Homo sapiens, UniProt Q9Y259). In words: Lipid kinase screening (ADP-Glo), CHKB. The format is biochemical. As for the experimental part:
as §2

Data set [13] is described as follows: Matrix stability assay in fasted state simulated gastric fluid (FaSSGF). The class given is in vitro ADME. As to conditions: for Matrix Stability: Remaining %: FaSSGF; for half-life: fasted state simulated gastric fluid (FaSSGF), fasted state simulated gastric fluid, pH 1.6, read-out: FaSSGF stability Half-life (converted). The procedure:
The ADME study for ICL-CCIC-0019, CK14, CK145 (5), CK146 (4) and CK147 (8) was performed by Charles River Drug Discovery Services (Essex, UK).
The predicted in vitro pharmacokinetic characteristics of compounds were evaluated by four ADME assays, namely kinetic solubility assay, metabolic stability assay using human liver microsome S9, permeability and efflux study using the Caco-2 cell line, and matrix stability assay using fasted state simulated gastric fluid (FaSSGF). All tested CHKA inhibitors were highly soluble (>150 μM) in 0.1 M PBS (2% DMSO) (Table 1). […] The in vivo clearance was calculated to predict the actual clearance in humans by scaling the clearance values, which takes into account liver weight, microsomes per liver and liver blood flow. […] In Caco-2 cell permeability assay, drug permeability was investigated and presented as apparent permeability coefficients (Papp) in A to B (A-B, apical to basolateral direction) and B to A (B-A, basolateral to apical direction).

In data set [14] the test system is C4-2B prostate cancer cells. In words: Cellular uptake and metabolism study in C4-2B with or without serum (HPLC). As to conditions: 50 μM, 4 h; for mean cellular uptake: mean of ICL-CCIC-0019 and CK146; for detection in cell lysates by HPLC (in words): both FCS groups.
Protocol: Cell lysate sample preparation: C4-2B prostate cancer cells were seeded into cell culture dishes (150 × 25 mm) at a density of 7 × 10^6 per dish. The cells were allowed to settle and grow for another 48 h. The cells were treated with ICL-CCIC-0019, CK146, CK147 and CK148 (50 μM of 7 mL RPMI medium with or without 10% FCS) for 4 h in the incubator. After 4-h incubation, the aliquots of medium were collected (see the medium sample preparation section). Cells were scraped, washed with ice-cold PBS three times and collected by centrifugation (4 °C, 4000× g). The cell pellets were resuspended in 500 μL of chilled acetonitrile:PBS (50:50, v/v) for cell disruption and homogenization. The cell disruption was performed by a Precellys® 24 homogenizer (Bertin Technologies, Montigny-le-Bretonneux, France) at 4 °C. After acetonitrile evaporation at room temperature, 50 μL of cell lysis was taken for protein analysis. Another 100 μL of the supernatant obtained after centrifuge (4 °C, 15,000× g) was resuspended in 100 μL formic acid:water (0.2%, v/v). Next, 100 μL of the filtered solution was analyzed by HPLC system described in Supplementary HPLC method D. Three injections were performed for each sample. Intracellular drug was normalized to cellular protein of each plate using BCA assay. Medium sample preparation for HPLC analysis: 250-μL aliquots of medium (with or without 10% FCS) were transferred into 1.5-mL tube containing 250 μL acetonitrile. After a brief vortex, the tube was placed at 4 °C for 30 min for protein precipitation. One hundred microliters of the resulting supernatant from centrifuge (4 °C, 15,000× g) were resuspended in 100 μL formic acid: water (0.2%, v/v). One hundred microliters of the filtered sample were analyzed by HPLC system described in Supplementary HPLC method D. Three injections were performed for each sample.
The test system of data set [15] is HCT-116 colorectal cancer cells. Briefly: Cellular uptake and metabolism study in HCT-116 (HPLC). The class given is cell-based, human. As to conditions: HCT-116, 50 μM. As for the experimental part: The cell pellets were resuspended in 1 mL water: acetonitrile: formic acid (95:5:0.2, v/v/v) and disrupted by an ultrasonic cell disruptor (Soniprep 150, MSE Ltd., London, UK) for 1 min on ice. One hundred microliters of the filtered supernatant from centrifuge (4 °C, 15,000× g) were analyzed by HPLC. Three injections were performed for each sample. […] The HPLC method used in this study is described in Supplementary HPLC method C.

Sequence of CHK b (CHKB) (Q9Y259 whole entry): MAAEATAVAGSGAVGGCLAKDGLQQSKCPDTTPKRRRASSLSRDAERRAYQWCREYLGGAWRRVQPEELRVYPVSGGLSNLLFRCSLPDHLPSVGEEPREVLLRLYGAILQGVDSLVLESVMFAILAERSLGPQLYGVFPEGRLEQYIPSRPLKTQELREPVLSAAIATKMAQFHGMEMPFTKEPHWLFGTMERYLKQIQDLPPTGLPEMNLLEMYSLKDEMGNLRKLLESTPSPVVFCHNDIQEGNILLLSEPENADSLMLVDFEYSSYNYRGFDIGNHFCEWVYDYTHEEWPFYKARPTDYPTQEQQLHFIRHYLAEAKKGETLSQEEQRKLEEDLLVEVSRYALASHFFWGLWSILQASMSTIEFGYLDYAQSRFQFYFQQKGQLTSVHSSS
Sequence of DGK z (Q13574 whole entry): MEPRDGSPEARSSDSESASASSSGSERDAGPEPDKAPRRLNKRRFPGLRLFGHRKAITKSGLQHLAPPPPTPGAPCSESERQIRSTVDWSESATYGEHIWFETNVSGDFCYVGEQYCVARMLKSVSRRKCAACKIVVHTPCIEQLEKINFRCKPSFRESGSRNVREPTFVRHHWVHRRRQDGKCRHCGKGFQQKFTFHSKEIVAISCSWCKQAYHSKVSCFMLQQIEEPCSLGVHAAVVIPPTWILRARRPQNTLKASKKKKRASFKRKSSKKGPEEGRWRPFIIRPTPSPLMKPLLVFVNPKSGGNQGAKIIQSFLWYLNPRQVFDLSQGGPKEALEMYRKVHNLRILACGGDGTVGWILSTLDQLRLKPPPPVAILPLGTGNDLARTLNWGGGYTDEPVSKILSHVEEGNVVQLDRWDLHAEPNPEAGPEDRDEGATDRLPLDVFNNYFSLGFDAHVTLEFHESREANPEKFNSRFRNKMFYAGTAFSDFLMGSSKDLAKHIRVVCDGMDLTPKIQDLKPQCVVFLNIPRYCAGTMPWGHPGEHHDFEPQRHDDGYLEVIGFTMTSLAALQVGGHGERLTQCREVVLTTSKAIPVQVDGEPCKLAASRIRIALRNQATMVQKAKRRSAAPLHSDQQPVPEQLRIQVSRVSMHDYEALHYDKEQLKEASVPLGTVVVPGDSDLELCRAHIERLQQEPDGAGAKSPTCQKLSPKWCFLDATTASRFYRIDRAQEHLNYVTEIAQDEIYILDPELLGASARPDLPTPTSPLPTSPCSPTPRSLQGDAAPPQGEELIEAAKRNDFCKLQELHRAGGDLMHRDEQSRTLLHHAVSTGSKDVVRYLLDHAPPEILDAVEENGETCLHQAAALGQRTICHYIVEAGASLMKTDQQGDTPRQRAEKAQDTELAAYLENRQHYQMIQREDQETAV

`CN(C)c1cc[n+](CCCCCCCCCCCCCC[n+]2ccc(N3CCNCC3)cc2)cc1` [CK146]: the 50% growth inhibitory concentration (GI50) was 210 ± 10 nM in [1]; 4980 ± 1500 nM in data set [2]; 3000 ± 260 nM in data set [3]; 2500 ± 300 nM in [4]; 3800 ± 900 nM in data set [5]. Also, the inhibition at 10 µM in data set [6] was -5.4%; in data set [7] it was 6.7%; in data set [9] it was 1.4%; in data set [10], 1.1%; in data set [11] it was 8.6%; in [12], -49%. Moreover, the “% Inhibition PI3Ka E524K + p85” value in [8] was −6.5%. The “Matrix Stability: Remaining %” value in [13] is reported as 92%. In data set [13], the half-life was greater than 10 h. The mean cellular uptake in data set [14] (FCS negative group) was found to be 34.1 ± 0.6 % μg^−1 protein; in [14] (FCS positive group (10% FCS)), 24.9 ± 1.4 % μg^−1 protein. Further, in [14], the “detection in cell lysates by HPLC (in words)” value was “detected”.

On to `CC(=O)NCCCCC(NC(=O)OC(C)(C)C)C(=O)N1CCN(c2cc[n+](CCCCCCCCCCCCCC[n+]3ccc(N(C)C)cc3)cc2)CC1` (centres unmarked) [CK145], for which the GI50 is 2250 ± 60 nM in [1], 45600 ± 6400 nM in data set [2], 63600 ± 10400 nM in [3] and 5000 ± 300 nM in [4]. For the same compound, the inhibition at 10 µM is -1% in [6]; 2.9% in [7]; 0.4% in [9]; 8% in data set [10]; 11.6% in data set [11]; -18.1% in [12]. Further, the “% Inhibition PI3Ka E524K + p85” value in data set [8] is recorded as −0.1%. Moreover, the “Matrix Stability: Remaining %” value in [13] was 74%. Moreover, the half-life in data set [13] was 9.2 h. Also, in [13] (low pH (1.6)), the “FaSSGF stability (in words)” value is “Rapid decomposition”. Moreover, in data set [15] (1 h and 2 h, HPLC), the “in vitro conversion to CK146 or intermediates (in words)” value is given as “not observed”.

Turning to `CN(C)c1cc[n+](CCCCCCCCCCCC[n+]2ccc(N(C)C)cc2)cc1` [ICL-CCIC-0019], the 50% growth inhibitory concentration (GI50) in [1] is 180 ± 10 nM; in data set [2] it was 910 ± 130 nM; in [3], 470 ± 80 nM; in data set [4], 500 ± 20 nM; in [5], 600 ± 100 nM. Also, the inhibition at 10 µM in data set [6] was 1%; in data set [7] it was 4.9%; in [9], -16.1%; in data set [10], 8.6%; in [11], 7.5%; in data set [12], -28.6%. Also, the “% Inhibition PI3Ka E524K + p85” value in data set [8] turned out to be 1.6%. Besides, in data set [13], the “Matrix Stability: Remaining %” value was 117%. In addition, the half-life in [13] is greater than 10 h. Further, the “cellular uptake relative to CK145” value in data set [15] (1 h and 2 h post-incubation) was “approximately two-fold”. For the same compound, the mean cellular uptake in data set [14] (FCS negative group) came to 34.1 ± 0.6 % μg^−1 protein; in data set [14] (FCS positive group (10% FCS)), 24.9 ± 1.4 % μg^−1 protein. Moreover, in [14], the “detection in cell lysates by HPLC (in words)” value is “detected”.
